The values that follow come from ChEMBL document CHEMBL1131913 (Bioorg Med Chem Lett, 1999).

Some results are limits rather than exact numbers.

For experiment [1], the target named is T1, Prostaglandin G/H synthase 2 (Homo sapiens, UniProt P35354).
T1 sequence (P35354 whole entry): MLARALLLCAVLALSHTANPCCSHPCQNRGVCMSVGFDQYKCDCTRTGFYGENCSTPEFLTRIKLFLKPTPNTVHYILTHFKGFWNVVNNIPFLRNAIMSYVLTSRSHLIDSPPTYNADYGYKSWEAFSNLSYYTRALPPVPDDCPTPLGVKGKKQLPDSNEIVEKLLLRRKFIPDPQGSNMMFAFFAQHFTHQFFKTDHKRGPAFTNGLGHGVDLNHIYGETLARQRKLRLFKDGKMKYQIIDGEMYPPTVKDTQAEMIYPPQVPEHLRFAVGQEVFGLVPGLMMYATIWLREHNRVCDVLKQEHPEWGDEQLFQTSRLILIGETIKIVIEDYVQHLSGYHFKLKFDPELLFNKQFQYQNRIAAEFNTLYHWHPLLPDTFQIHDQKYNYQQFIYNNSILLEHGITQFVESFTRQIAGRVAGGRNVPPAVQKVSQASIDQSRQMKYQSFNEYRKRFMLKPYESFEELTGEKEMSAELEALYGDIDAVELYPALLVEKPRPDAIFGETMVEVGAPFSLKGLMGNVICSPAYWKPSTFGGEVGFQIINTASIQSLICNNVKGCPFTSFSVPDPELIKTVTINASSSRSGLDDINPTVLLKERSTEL
Briefly: In vitro inhibitory activity against Prostaglandin G/H synthase 2 (COX-2) in human.

The target of experiment [2] is T2, Prostaglandin G/H synthase 1 (Ovis aries, UniProt P05979).
T2 sequence (P05979 whole entry): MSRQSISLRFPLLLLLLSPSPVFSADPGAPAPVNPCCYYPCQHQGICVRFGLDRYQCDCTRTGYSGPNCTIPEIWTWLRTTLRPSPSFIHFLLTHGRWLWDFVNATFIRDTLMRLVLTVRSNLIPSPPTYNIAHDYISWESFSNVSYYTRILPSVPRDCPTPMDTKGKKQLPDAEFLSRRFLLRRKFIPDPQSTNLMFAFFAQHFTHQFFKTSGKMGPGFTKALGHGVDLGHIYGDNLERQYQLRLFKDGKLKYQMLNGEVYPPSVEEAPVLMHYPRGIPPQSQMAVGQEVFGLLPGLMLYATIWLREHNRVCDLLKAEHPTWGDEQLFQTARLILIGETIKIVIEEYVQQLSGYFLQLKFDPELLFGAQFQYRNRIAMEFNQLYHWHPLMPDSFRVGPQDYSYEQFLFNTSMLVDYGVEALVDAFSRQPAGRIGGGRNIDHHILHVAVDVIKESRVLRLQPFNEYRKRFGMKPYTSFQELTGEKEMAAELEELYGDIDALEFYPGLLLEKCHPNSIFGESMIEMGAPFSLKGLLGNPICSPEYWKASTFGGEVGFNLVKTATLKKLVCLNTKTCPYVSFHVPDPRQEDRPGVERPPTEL
Briefly: In vitro inhibitory activity against Prostaglandin G/H synthase 1 in sheep.

Experiment [3] is filed under the species Ovis aries. In words: Selectivity ratio of COX-1 to that of COX-2.

Consider `CCc1cccc(-c2ccc(C(C)C(=O)O)cc2)c1` (stereo not drawn), for which the values for the IC50 in experiment [1] and in experiment [2] were 2.4 µM and 5.8 µM, respectively. The Selectivity in experiment [3] came out at 2.4.

As for `Cc1cc2cc(-c3ccc(C(C)C(=O)O)cc3)ccc2[nH]1` (stereo not drawn), the IC50 in experiment [1] came out at 0.23 µM; in experiment [2], 10.5 µM. Also, the Selectivity in experiment [3] is 45.

For `CCOc1cc(OCC)cc(-c2ccc(C(C)C(=O)O)cc2F)c1` (stereo not drawn), the IC50 in experiment [1] was 0.1 µM; in experiment [2], 7.7 µM. Also, the Selectivity in experiment [3] was 77.

For `CC(C(=O)O)c1ccc(-c2ccc3[nH]ccc3c2)cc1` (stereo not drawn), the IC50 in experiment [1] stood at 0.19 µM; in experiment [2] it was 0.1 µM. Also, in experiment [3], the Selectivity was 0.53.

On to `C=Cc1cncc(-c2ccc(C(C)C(=O)O)cc2)c1` (stereo not drawn), for which the 50% inhibitory concentration (IC50) in experiment [1] and in experiment [2] was 0.19 µM each time. Further, the Selectivity in experiment [3] worked out at 1.

As for `CC(C(=O)O)c1ccc(-c2ccccc2)cc1` (stereo not drawn), the IC50 in experiment [1] came to 0.021 µM.

Take `CCSc1cccc(-c2ccc(C(C)C(=O)O)cc2)c1` (stereo not drawn): the IC50 in experiment [1] was 0.33 µM; in experiment [2] it was 3.1 µM. For the same compound, the Selectivity in experiment [3] worked out at 9.4.

Consider `CC(C)c1cccc(-c2ccc(C(C)C(=O)O)cc2F)c1` (stereo not drawn), for which the concentration for half-maximal inhibition (IC50) in experiment [1] was > 100 µM; in experiment [2], 15 µM. Further, the Selectivity in experiment [3] is < 0.15.

As for `C=CCc1cccc(-c2ccc(C(C)C(=O)O)cc2)c1` (stereo not drawn), the half-maximal inhibitory concentration (IC50) in experiment [1] was 0.15 µM; in experiment [2] it was 1.4 µM. Moreover, in experiment [3], the Selectivity was 9.3.

As to `C=Cc1cccc(-c2ccc(C(C)C(=O)O)cc2)c1` (stereo not drawn), the IC50 in experiment [1] worked out at 0.73 µM; in experiment [2], 1.3 µM. Besides, in experiment [3], the Selectivity was 1.8.

Take `CCOc1cc(OCC)cc(-c2ccc(C(C)C(=O)O)cc2)c1` (stereo not drawn): the figures for the IC50 in experiment [1] and in experiment [2] were 0.32 µM and 25 µM, respectively. Besides, the Selectivity in experiment [3] turned out to be 78.

Take `Cc1cc(C)cc(-c2ccc(C(C)C(=O)O)cc2F)c1` (stereo not drawn): the values for the half-inhibitory concentration (IC50) in experiment [1] and in experiment [2] were 19 µM and 15 µM, respectively. Moreover, in experiment [3], the Selectivity was determined as 0.79.

Regarding `COc1cc(OC)cc(-c2ccc(C(C)C(=O)O)cc2F)c1` (stereo not drawn), the values for the concentration for half-maximal inhibition (IC50) in experiment [1] and in experiment [2] were 0.07 µM and 0.063 µM, respectively. For the same compound, in experiment [3], the Selectivity came out at 0.9.

On to `C/C=C/c1cncc(-c2ccc(C(C)C(=O)O)cc2)c1` (stereo not drawn), for which the half-maximal inhibitory concentration (IC50) in experiment [1] worked out at 0.67 µM; in experiment [2], 15.5 µM. The Selectivity in experiment [3] was determined as 23.

With `CCOc1cccc(-c2ccc(C(C)C(=O)O)cc2F)c1` (stereo not drawn), the half-inhibitory concentration (IC50) in experiment [1] and in experiment [2] was 0.014 µM throughout. For the same compound, the Selectivity in experiment [3] amounted to 1.
